Experimental data as given in ChEMBL document CHEMBL5150027, “The inhibition of monoamine oxidase by 2H-1,4-benzothiazin-3(4H)-ones” (Bioorg Med Chem Lett, 2022).

What was measured:
[1] = target: T1, Amine oxidase [flavin-containing] A (Homo sapiens, UniProt P21397); assay: Inhibition of recombinant human MAO-A using kynuramine as substrate assessed as inhibition of 4-hydroxyquinoline formation incubated for 20 mins by fluorescence spectrophotometric analysis
T1 sequence (P21397 whole entry): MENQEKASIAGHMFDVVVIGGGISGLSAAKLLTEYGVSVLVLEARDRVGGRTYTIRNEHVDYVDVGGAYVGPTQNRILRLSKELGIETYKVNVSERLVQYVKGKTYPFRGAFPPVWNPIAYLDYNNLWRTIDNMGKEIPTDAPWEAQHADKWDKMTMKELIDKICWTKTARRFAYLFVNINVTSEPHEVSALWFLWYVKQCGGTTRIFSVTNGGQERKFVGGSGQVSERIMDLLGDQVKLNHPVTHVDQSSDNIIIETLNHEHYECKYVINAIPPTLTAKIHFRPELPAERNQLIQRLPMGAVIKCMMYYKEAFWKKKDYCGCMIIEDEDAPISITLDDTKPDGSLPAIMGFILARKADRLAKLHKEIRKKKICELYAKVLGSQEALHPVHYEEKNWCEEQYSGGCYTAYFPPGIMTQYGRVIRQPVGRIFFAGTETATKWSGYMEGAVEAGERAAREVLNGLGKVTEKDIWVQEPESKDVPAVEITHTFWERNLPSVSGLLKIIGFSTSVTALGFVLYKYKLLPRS

[2] = target: T2, Amine oxidase [flavin-containing] B (Homo sapiens, UniProt P27338)
T2 sequence (P27338 whole entry): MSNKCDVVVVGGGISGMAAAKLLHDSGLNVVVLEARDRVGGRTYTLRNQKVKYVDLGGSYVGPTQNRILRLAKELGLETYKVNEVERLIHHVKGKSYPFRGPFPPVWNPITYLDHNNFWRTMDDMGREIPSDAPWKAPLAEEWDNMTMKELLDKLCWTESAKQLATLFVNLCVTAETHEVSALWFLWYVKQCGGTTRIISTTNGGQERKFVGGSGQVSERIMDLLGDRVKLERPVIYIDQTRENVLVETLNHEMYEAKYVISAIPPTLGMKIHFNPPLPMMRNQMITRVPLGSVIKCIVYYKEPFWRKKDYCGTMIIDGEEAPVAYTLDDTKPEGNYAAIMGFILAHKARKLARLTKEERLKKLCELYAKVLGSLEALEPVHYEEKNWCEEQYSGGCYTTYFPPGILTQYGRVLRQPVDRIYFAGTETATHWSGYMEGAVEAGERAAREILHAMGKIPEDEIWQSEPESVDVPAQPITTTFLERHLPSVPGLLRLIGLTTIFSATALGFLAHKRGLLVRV

[3] = target: D-amino-acid oxidase (Sus scrofa, UniProt P00371); assay: Inhibition of porcine kidney DAAO using D-serine as substrate assessed as H2O2 formation by amplex red and peroxidase-coupled continuous fluorescence spectrophotometric analysis
[4] = target: T2, Amine oxidase [flavin-containing] B; assay: Competitive inhibition of recombinant human MAO-B using kynuramine as substrate assessed as enzyme-inhibitor dissociation constant at varying substrate concentration by Lineweaver-burk plot analysis

Chain of D-amino-acid oxidase (P00371 whole entry): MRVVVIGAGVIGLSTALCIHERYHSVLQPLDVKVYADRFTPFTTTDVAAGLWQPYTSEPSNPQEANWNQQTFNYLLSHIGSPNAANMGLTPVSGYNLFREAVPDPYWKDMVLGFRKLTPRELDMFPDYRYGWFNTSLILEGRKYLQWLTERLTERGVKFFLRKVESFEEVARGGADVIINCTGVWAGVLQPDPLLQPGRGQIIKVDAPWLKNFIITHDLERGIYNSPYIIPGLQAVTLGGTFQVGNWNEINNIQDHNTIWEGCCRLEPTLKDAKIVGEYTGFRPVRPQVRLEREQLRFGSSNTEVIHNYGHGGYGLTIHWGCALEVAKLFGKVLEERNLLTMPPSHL

SMILES	IC50 [1] [µM]	IC50 [2] [µM]	IC50 [3] [µM]	Ki [4] [µM]
CCCOc1ccc2c(c1)SCC(=O)N2	6.51	2.87		
O=C1CSc2cc(OCc3ccc(Br)cc3)ccc2N1	15.6	0.0041		
O=C1CSc2cc(OCCCc3ccccc3)ccc2N1	96.8	0.02		
O=C1CSc2cc(O)ccc2N1	19.2	20	4.2	
O=C1CSc2cc(OCc3ccc(Cl)cc3)ccc2N1	24.4	0.0027	73.2	
O=C1CSc2cc(OCCc3ccccc3)ccc2N1	13.1	0.167		
COc1ccc2c(c1)SCC(=O)N2	21.1	42.6		
O=C1CSc2cc(OCC3CCCCC3)ccc2N1	1.17	0.024		
Cc1ccc(COc2ccc3c(c2)SCC(=O)N3)cc1		0.0082		
N#Cc1ccc(COc2ccc3c(c2)SCC(=O)N3)cc1	0.714	0.0096	47.5	0.0067
O=C1CSc2cc(OCc3ccccc3)ccc2N1	8.06	0.071		
